Columns and labels:
[1] = test system: Trypsin; assay: Fixed time active-site titration of trypsin with DPCF (fluoride electrode); assay type: biochemical; details: for % Active: active concentration as percentage of total mass; for F^-: pH 5.5, two hours, room temperature, mean of duplicates, blank 10.60
Method: (§1) Diphenylcarbamyl fluoride is a specific inactivator for both α-chymotrypsin and trypsin. […] The fixed time pseudoequilibrium can nevertheless be used for the assay of both enzymes since the number of moles of F^- released is stoichiometrically related to the active concentration of either two enzymes.
The reagent solutions were the same as described in Example 1. The assay procedure was however modified in the following manner. Into the plastic beaker, 4.8 ml of assay buffer, […] of either enzyme solution and 100 μl of DPFC solution were added. A blank was prepared in a similar manner by substituting 100 μl of a 2 mM HCl for the enzyme solution. All solutions were left at room temperature for two hours. Following that the F^- concentration was then measured by the fluoride electrode. […]

[2] = test system: Chymotrypsin; assay: Fixed time active-site titration of chymotrypsin with DPCF (fluoride electrode); assay type: biochemical; details: for % Active: active concentration as percentage of total mass; for F^-: pH 5.5, two hours, room temperature, mean of duplicates, blank 10.60
Method: as §1
The reagent solutions were the same as described in Example 1. The assay procedure was however modified in the following manner. Into the plastic beaker, 4.8 ml of assay buffer, […] of either enzyme solution and 100 μl of DPFC solution were added. A blank was prepared in a similar manner by substituting 100 μl of a 2 mM HCl for the enzyme solution. All solutions were left at room temperature for two hours. Following that the F^- concentration was then measured by the fluoride electrode. […].
The difference in the relative-rates of F^- generation with chymotrypsin solution and chymotrypsin solution with serum was used to estimate serum protease inhibitor capacity. The assay buffer and DPCF solution were prepared as described in Example 5. Chymotrypsin solution 2.0 μM corresponding to 1.46 μM active mass was prepared by dilution of stock chymotrypsin solution as described in Example 1.

[3] = enzyme concentration 2 μM (mass)
[4] = enzyme concentration 5 μM (mass)
[5] = enzyme concentration 10 μM (mass)
[6] = mean over 2, 5 and 10 μM (mass)

Row | Substance | % Active [1, 3] [%] | F^- [1, 3] [µM] | % Active [1, 4] [%] | F^- [1, 4] [µM] | % Active [1, 5] [%] | F^- [1, 5] [µM] | % Active Mean ± Stand. Dev. [1, 6] [%] | active concentration ([2]; chymotrypsin solution 2.0 μM (mass)) [µM] | % Active [2, 3] [%] | F^- [2, 3] [µM] | % Active [2, 4] [%] | F^- [2, 4] [µM] | % Active [2, 5] [%] | F^- [2, 5] [µM] | % Active Mean ± Stand. Dev. [2, 6] [%]
1 | Trypsin | 77.5 | 12.12 | 69.4 | 14.00 | 65.7 | 17.12 | 70.9 ± 4.9 | – | – | – | – | – | – | – | –
2 | Chymotrypsin | – | – | – | – | – | – | – | 1.46 | 80.0 | 12.20 | 72.2 | 14.21 | 70.4 | 17.64 | 74.2 ± 4.2

Reference: US4607010A, “Analytical process and means for measuring protease inhibitor capacity of serum” (priority 1984, dated 1986)
